Where two headings read alike, the source gives them in different places. Some results are limits rather than exact numbers.

The text below walks through data of patent US12679836B2, “4H-pyrrolo[3,2-c]pyridin-4-one compounds” (Bayer Aktiengesellschaft, priority 2019, dated 2026).

Assay [1] addresses T1, EGFR with insertion of SVD between D770 and N771 (EGFR ins SVD) (Homo sapiens, UniProt P00533, DUP768-770).
T1 construct: made in house; host or cells: Sf9 insect cells (baculovirus)
Description: Exon20-Mutant-EGFR(D770_N771insSVD) kinase assay (TR-FRET). In kind it is biochemical. The settings on record: 2 mM ATP, several values per example where printed. (In general: TR-FRET usually uses a lanthanide donor and a delayed reading to cut background.)

Assay [2] addresses T2, Bub1 (Homo sapiens, UniProt O43683).
T2 construct: catalytic domain of human Bub1 (amino acids 704-1085); His6 (N); made in house; host or cells: Hi5 insect cells
Description: Bub1 TR-FRET high ATP kinase assay. In kind it is biochemical. Particulars: 2 mM ATP. The source says: Bub1 High ATP Kinase Assay
Bub1-inhibitory activity of compounds of the present invention at a high ATP concentration was quantified employing the Bub1 TR-FRET high ATP kinase assay as described in the following paragraphs.
N-terminally His6-tagged recombinant catalytic domain of human Bub1 (amino acids 704-1085), expressed in insect cells (Hi5) and purified by Ni-NTA affinity chromatography and subsequent size exclusion chromatography, was used as enzyme. As substrate for the kinase reaction the biotinylated peptide biotin-Ahx-[…]—SEQ ID 7 (C-terminus in amid form) was used which can be purchased e.g. form the company Biosyntan (Berlin, Germany).

The target of assay [3] is Ba/F3-EGFR-insSVD cells (Homo sapiens, UniProt P00533, DUP768-770, cells depend on it). Description: Ba/F3 cell survival assay (Cell Titer-Glo), EGFR-insSVD. The assay is classed as cell-based. Particulars: without IL-3, with 10 ng/mL EGF, 48 h; read-out: BA/F3 (insSVD) IC50. Here is the method: (§1) 293T cells from ATCC were transfected with pBABEpuro expression constructs for WT EGFR or EGFR-insSVD and pCL-Eco packaging vector using Fugene-6 transfection reagent from Promega. Plates were incubated at 37° C. for 48 h. Retrovirus was harvested by filtering the media supernatant through a 0.45 μm filter.
(§2) Ba/F3 cells purchased from DSMZ were grown in RPMI+10% FBS+10 ng/mL IL-3 and infected with filtered retroviral supernatant at a 1:2 dilution. Polybrene was added to a concentration of 8 μg/mL, plates were spun for 90 min, and incubated overnight at 37° C. 2 μg/mL puromycin was added to the infected cells 24 h after infection and cells were continually grown in the presence of puromycin and 10 ng/mL IL-3. Following stably expressing Ba/F3 cell lines were generated: Ba/F3-EGFR-WT, Ba/F3-EGFR-insSVD, (Ba/F3-vector-control).
(§3) For cell survival assays, Ba/F3 cells were grown to a density of 1-2 million cells per mL, spun down and resuspended in media without IL-3, and replated at a concentration 200,000-500,000 cells per mL. The cells ectopically expressing WT EGFR or EGFR-insSVD were plated with 10 ng/mL Millipore Culture grade EGF. The cells ectopically expressing pBABEpuro empty vector were plated with 10 ng/mL IL-3. 2 days later, cells were plated in 50 μL in a 384 well plate at a concentration of 4000 cells per well for cells assayed in the absence of IL-3 and 2000 cells per well for cells assayed in the presence of IL-3. 100 nL of compound was added to each well using a 100 nL pin head, and plates were incubated at 37° C. for 48 h.
(§4) Cell viability was measured by adding 20 μL of Cell Titer-Glo Luminescent Cell Viability Reagent diluted 1:3 in PBS. Plates were sealed with Perkin Elmer Top-Seal, inverted several times to mix, and immediately centrifuged at 1000 rpm for 2 min. Plates were incubated in low light conditions for 8-10 min and luminescence was measured.

Assay [4] concerns the target Ba/F3-EGFR-WT cells (Homo sapiens, UniProt P00533). Description: Ba/F3 cell survival assay (Cell Titer-Glo), WT EGFR. In kind it is cell-based. The settings on record: without IL-3, with 10 ng/mL EGF, 48 h; read-out: BA/F3 (wild type) IC50. Here is the method:
as §1, §2, §3, §4
(Cellular ATP, detected with luciferase, serves as a proxy for viable cell number.)

Where [5] appears, read: Bub1 high ATP (2 mM) IC50 [mol/l].
Where [6] appears, read: read-out: Bub1 high ATP (2 mM) IC50 [mol/l].

T1 sequence (P00533 with tags, fused parts or gaps DUP768-770): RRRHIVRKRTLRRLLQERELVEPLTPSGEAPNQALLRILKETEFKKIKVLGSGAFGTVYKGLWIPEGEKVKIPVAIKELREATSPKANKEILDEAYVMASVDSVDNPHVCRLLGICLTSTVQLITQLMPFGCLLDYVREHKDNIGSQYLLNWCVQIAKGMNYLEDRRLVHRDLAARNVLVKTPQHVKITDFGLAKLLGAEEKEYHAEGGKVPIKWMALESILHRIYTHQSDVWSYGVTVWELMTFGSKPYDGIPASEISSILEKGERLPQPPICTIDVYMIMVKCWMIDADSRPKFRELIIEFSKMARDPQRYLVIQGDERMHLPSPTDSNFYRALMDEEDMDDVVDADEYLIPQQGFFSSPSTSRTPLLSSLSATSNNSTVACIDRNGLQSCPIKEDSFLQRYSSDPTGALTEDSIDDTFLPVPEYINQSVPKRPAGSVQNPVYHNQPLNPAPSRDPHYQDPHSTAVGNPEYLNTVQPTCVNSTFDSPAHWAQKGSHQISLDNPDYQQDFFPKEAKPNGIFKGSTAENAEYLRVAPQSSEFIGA
Ba/F3-EGFR-WT cells, sequence (P00533 whole entry, change not shown): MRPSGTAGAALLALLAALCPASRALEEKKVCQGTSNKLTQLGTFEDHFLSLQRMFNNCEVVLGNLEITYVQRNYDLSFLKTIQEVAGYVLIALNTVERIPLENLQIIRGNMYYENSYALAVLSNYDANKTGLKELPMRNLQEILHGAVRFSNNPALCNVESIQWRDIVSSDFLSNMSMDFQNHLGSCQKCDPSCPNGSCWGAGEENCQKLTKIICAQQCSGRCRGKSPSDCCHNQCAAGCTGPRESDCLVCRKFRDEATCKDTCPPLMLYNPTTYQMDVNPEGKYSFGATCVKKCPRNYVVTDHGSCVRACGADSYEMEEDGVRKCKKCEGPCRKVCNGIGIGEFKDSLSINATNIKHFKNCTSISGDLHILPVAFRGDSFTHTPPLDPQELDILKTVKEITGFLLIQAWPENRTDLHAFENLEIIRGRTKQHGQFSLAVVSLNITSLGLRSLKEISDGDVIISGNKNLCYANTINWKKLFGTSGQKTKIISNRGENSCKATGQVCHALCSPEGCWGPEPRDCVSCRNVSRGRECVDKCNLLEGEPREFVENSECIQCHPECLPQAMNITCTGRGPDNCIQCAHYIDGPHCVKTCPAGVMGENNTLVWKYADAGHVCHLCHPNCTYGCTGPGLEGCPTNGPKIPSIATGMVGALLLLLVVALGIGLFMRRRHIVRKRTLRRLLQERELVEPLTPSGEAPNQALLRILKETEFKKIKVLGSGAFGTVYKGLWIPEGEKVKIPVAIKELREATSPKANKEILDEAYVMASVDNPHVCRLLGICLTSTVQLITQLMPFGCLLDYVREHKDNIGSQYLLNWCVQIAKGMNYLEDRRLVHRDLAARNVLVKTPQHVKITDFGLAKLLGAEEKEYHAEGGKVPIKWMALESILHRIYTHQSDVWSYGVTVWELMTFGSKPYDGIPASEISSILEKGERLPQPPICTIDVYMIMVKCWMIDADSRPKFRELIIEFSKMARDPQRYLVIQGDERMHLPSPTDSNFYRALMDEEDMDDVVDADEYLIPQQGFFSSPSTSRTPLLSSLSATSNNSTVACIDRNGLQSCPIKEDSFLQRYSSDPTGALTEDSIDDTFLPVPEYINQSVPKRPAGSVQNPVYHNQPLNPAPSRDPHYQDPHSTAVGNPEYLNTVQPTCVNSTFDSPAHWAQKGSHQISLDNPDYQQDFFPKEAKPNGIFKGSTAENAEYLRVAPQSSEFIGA
Ba/F3-EGFR-insSVD cells, sequence (P00533 with tags, fused parts or gaps DUP768-770): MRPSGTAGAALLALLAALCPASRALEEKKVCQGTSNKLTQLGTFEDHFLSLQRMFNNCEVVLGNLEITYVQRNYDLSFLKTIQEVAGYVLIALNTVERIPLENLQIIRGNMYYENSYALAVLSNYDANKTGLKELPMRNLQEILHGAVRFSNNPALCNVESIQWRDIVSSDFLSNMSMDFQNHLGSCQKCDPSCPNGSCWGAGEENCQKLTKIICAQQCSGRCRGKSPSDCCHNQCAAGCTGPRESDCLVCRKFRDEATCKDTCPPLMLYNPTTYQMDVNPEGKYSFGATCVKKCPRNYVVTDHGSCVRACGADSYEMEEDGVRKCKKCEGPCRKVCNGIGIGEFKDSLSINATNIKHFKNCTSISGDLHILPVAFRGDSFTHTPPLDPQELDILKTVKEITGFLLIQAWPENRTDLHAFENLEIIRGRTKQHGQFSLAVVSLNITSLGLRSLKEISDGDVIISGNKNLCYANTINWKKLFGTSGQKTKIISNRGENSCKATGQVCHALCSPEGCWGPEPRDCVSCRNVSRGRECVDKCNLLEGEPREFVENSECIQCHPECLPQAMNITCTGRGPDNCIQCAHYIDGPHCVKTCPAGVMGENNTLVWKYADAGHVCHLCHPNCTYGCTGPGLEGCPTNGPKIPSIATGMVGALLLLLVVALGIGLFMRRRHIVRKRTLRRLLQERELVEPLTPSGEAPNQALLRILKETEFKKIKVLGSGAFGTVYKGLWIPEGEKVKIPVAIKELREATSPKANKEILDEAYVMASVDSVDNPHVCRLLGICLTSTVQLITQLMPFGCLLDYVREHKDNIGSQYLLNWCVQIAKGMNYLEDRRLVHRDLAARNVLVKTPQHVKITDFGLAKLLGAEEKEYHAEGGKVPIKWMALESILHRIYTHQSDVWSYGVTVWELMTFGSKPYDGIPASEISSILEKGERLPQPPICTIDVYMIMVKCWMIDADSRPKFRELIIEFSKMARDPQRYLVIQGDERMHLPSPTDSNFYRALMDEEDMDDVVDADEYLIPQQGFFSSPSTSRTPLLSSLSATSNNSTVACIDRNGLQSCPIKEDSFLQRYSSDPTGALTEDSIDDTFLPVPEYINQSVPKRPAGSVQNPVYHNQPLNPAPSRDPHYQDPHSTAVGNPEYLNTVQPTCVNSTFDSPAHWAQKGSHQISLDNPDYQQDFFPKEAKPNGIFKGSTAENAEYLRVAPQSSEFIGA
T2 sequence (O43683 704-1085): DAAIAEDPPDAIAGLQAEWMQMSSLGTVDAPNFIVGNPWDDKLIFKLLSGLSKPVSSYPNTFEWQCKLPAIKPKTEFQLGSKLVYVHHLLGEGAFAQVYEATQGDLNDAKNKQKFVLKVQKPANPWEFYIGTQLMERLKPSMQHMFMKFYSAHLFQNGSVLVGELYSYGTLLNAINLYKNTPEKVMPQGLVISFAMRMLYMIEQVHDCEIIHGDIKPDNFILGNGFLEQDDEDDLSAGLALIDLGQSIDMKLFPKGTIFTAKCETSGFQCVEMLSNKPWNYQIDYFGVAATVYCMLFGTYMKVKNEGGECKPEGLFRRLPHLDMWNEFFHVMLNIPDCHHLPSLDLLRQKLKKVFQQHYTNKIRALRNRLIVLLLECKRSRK

Turning to `COc1c(Cl)cccc1Nc1c(-c2ccncc2O[C@@H](C)C2COCCO2)[nH]c2c1C(=O)NCC2` (mixture of isomers) [Example 57, 3-(3-chloro-2-methoxyanilino)-2-{3-[(1S)-1-(1,4-dioxan-2-yl)ethoxy]pyridin-4-yl}-1,5,6,7-tetrahydro-4H-pyrrolo[3,2-c]pyridin-4-one], the “mutEGFR (D770_N771insSVD) kinase assay IC50” value (from here on “mutEGFR”) in assay [1] turned out to be 0.269 nM. For the same molecule, the IC50 in assay [2] (setting [5]) stood at 14000 nM. Besides, the GI50 in assay [3] is 28 nM; in assay [4] it was 539 nM.

For the molecule `COc1c(Cl)cccc1Nc1c(-c2ccncc2OC[C@H]2COCCO2)[nH]c2c1C(=O)NCC2` (single isomer, unassigned) [Example 3], the “mutEGFR” value in assay [1] was 0.137 nM. This molecule also came in with an IC50 in assay [2] (setting [5]) of 3330 nM. Besides, the GI50 turned out to be 22.8 nM in assay [3] and 755 nM in assay [4].

For `O=C1NCCc2[nH]c(-c3ccncc3OCC3COCCO3)c(Nc3cccc(Cl)c3Cl)c21` (single isomer, unassigned) [Example 9, 3-(2,3-Dichloroanilino)-2-{3-[(1,4-dioxan-2-yl)methoxy]pyridin-4-yl}-1,5,6,7-tetrahydro-4H-pyrrolo[3,2-c]pyridin-4-one], in assay [1], the “mutEGFR” value was 0.0891 nM. Also, the IC50 in assay [2] (setting [5]) stood at 4230 nM. Also, the GI50 came to 32.7 nM in assay [3] and 303 nM in assay [4].

As for `COc1c(Cl)cccc1Nc1c(-c2ccncc2OCC2CN(C)CCO2)[nH]c2c1C(=O)NCC2` (single isomer, unassigned) [Example 16, 3-(3-chloro-2-methoxyanilino)-2-(3-{[4-methylmorpholin-2-yl]methoxy}pyridin-4-yl)-1,5,6,7-tetrahydro-4H-pyrrolo[3,2-c]pyridin-4-one], the “mutEGFR” value in assay [1] was 0.228 nM. In assay [2] (setting [5]), this molecule yielded an IC50 above 20000 nM. The GI50 in assay [3] was found to be 126 nM; in assay [4], 1050 nM.

In the case of `COc1c(Cl)cccc1Nc1c(-c2ccncc2OCC2CN(C)CCO2)[nH]c2c1C(=O)NCC2` (single isomer, unassigned) [Example 17, 3-(3-chloro-2-methoxyanilino)-2-(3-{[4-methylmorpholin-2-yl]methoxy}pyridin-4-yl)-1,5,6,7-tetrahydro-4H-pyrrolo[3,2-c]pyridin-4-one], the “mutEGFR” value in assay [1] is 0.156 nM. Further, in assay [2] (setting [6]), the IC50 is above 20000 nM. Moreover, the GI50 in assay [3] was 9.53 nM; in assay [4], 231 nM.

Regarding `COc1c(Cl)cccc1Nc1c(-c2ccncc2OCCC2COCCO2)[nH]c2c1C(=O)NCC2` (single isomer, unassigned) [Example 25, 3-(3-chloro-2-methoxyanilino)-2-{3-[2-(4-dioxan-2-yl)ethoxy]pyridin-4-yl}-1,5,6,7-tetrahydro-4H-pyrrolo[3,2-c]pyridin-4-one], the “mutEGFR” value in assay [1] turned out to be 0.282 nM. Besides, the IC50 in assay [2] (setting [5]) is above 20000 nM. Besides, the GI50 in assay [3] was found to be 18.3 nM; in assay [4] it was 349 nM.

Turning to `COc1c(Cl)cccc1Nc1c(-c2ccncc2OCCC2COCCO2)[nH]c2c1C(=O)NCC2` (single isomer, unassigned) [Example 26, 3-(3-chloro-2-methoxyanilino)-2-{3-[2-(4-dioxan-2-yl)ethoxy]pyridin-4-yl}-1,5,6,7-tetrahydro-4H-pyrrolo[3,2-c]pyridin-4-one], the “mutEGFR” value in assay [1] was found to be 0.213 nM. The molecule further returned an IC50 in assay [2] (setting [5]) of 1080 nM. Further, the GI50 in assay [3] was 89.9 nM; in assay [4] it was 839 nM.

With `COc1c(F)cccc1Nc1c(-c2ccncc2OCC2COC(C)(C)CO2)[nH]c2c1C(=O)NCC2` (single isomer, unassigned) [Example 33, 2-(3-{[5,5-dimethyl-1,4-dioxan-2-yl]methoxy}pyridin-4-yl)-3-(3-fluoro-2-methoxyanilino)-1,5,6,7-tetrahydro-4H-pyrrolo[3,2-c]pyridin-4-one], the “mutEGFR” value in assay [1] was 0.213 nM. The IC50 in assay [2] (setting [5]) is above 20000 nM. Also, the GI50 in assay [3] came to 102 nM; in assay [4] it was 557 nM.

In the case of `COc1c(F)cccc1Nc1c(-c2ccncc2OCC2COC(C)(C)CO2)[nH]c2c1C(=O)NCC2` (single isomer, unassigned) [Example 34, 2-(3-{[5,5-dimethyl-1,4-dioxan-2-yl]methoxy}pyridin-4-yl)-3-(3-fluoro-2-methoxyanilino)-1,5,6,7-tetrahydro-4H-pyrrolo[3,2-c]pyridin-4-one], in assay [1], the “mutEGFR” value amounted to 0.193 nM. Further, the IC50 in assay [2] (setting [6]) was above 20000 nM. The GI50 in assay [3] worked out at 12 nM; in assay [4], 204 nM.

For the molecule `COc1c(F)cccc1Nc1c(-c2ccncc2OCCC2COCCO2)[nH]c2c1C(=O)NCC2` (single isomer, unassigned) [Example 35, 2-(3-{2-[1,4-dioxan-2-yl]ethoxy}pyridin-4-yl)-3-(3-fluoro-2-methoxyanilino)-1,5,6,7-tetrahydro-4H-pyrrolo[3,2-c]pyridin-4-one], the “mutEGFR” value in assay [1] turned out to be 0.0873 nM. This molecule displayed an IC50 in assay [2] (setting [5]) above 20000 nM. Moreover, the results for the GI50 in assay [3] and in assay [4] were 21.5 nM and 261 nM, respectively.

`Cc1c(F)cccc1Nc1c(-c2ccncc2OCC2COC(C)(C)CO2)[nH]c2c1C(=O)NCC2` (single isomer, unassigned) [Example 39, 2-[3-[(5,5-dimethyl-1,4-dioxan-2-yl)methoxy]-4-pyridyl]-3-(3-fluoro-2-methyl-anilino)-1,5,6,7-tetrahydropyrrolo[3,2-c]pyridin-4-one]: the “mutEGFR” value in assay [1] was 0.304 nM. In assay [2] (setting [5]), this molecule showed an IC50 above 20000 nM. The GI50 in assay [3] was determined as 44 nM; in assay [4] it was 630 nM.

For the molecule `Cc1c(F)cccc1Nc1c(-c2ccncc2OCC2COCCO2)[nH]c2c1C(=O)NCC2` (single isomer, unassigned) [Example 49, 2-[3-(1,4-dioxan-2-ylmethoxy)-4-pyridyl]-3-(3-fluoro-2-methyl-anilino)-1,5,6,7-tetrahydropyrrolo[3,2-c]pyridin-4-one], the “mutEGFR” value in assay [1] was 0.17 nM. The same molecule came in with an IC50 in assay [2] (setting [5]) of 3930 nM. Moreover, the GI50 in assay [3] turned out to be 53.6 nM; in assay [4], 785 nM.

With `Cc1c(Cl)cccc1Nc1c(-c2ccncc2OC[C@H]2COCCO2)[nH]c2c1C(=O)NCC2` (single isomer, unassigned) [Example 51], in assay [1], the “mutEGFR” value was 0.136 nM. This molecule came in with an IC50 in assay [2] (setting [5]) of 1520 nM. Moreover, the values for the GI50 in assay [3] and in assay [4] were 46.7 nM and 742 nM, respectively.

With `CCc1c(Cl)cccc1Nc1c(-c2ccncc2OC[C@@H]2COCCO2)[nH]c2c1C(=O)NCC2` (single isomer, unassigned) [Example 53], the “mutEGFR” value in assay [1] was 0.426 nM. The same molecule gave an IC50 in assay [2] (setting [5]) of 1360 nM. Further, the GI50 in assay [3] turned out to be 21.3 nM; in assay [4], 408 nM.

As for `CCc1c(Cl)cccc1Nc1c(-c2ccncc2OC[C@H]2COCCO2)[nH]c2c1C(=O)NCC2` (single isomer, unassigned) [Example 54], the “mutEGFR” value in assay [1] amounted to 0.571 nM. In assay [2] (setting [5]), this molecule yielded an IC50 of 994 nM. Moreover, the GI50 in assay [3] worked out at 80.9 nM; in assay [4], 917 nM.
